The subject of assay [1] is C57BL/6j mice (DIO mice). Put plainly: Anti-obesity effect test in DIO mice (body weight, food consumption). The class given is in vivo. The arrangement: concentration or dose not given beside the values. The conditions noted are these: for Rate of decrease in body weight relative to control group: at final administration (Day 0 to Day 35, once a day). As for the experimental part:
The anti-obesity effect of the compound and/or agent according to the present invention was examined by using C57BL/6j mice (DIO mice) provided with a high-fat diet (TestDiet; 58Y1).
Five-week-old male C57BL/6j mice (CLEA Japan. Inc.) were purchased, and grown with feeding of a high-fat diet under 12-hour light-dark cycles for 4 weeks to produce DIO mice. A medium (0.5% HPMC and physiological saline) was administered once a day from 3 weeks before administration of the compound. Randomization was performed for grouping (n=9 to 10) on the basis of body weight and change in food consumption during the period of administration for conditioning. From Day 0 to Day 35, gavage of vehicle (0.5% HPMC and physiological saline) (hereinafter, Control group), gavage of Compound (A) according to the present invention (hereinafter, (A)-administration group), subcutaneous administration of GLP-1 formulation (liraglutide or semaglutide) as Compound (B) according to the present invention (hereinafter, (B)-administration group), or both (hereinafter, the combined administration group) were performed once a day. The GLP-1 formulation was formulated in an increasing dose, and liraglutide and semaglutide were administered at 4 to 20 μg/kg and:3 to 15 μg/kg, respectively, once a day. During the administration period, daily body weight measurement and food consumption measurement once a week were performed.

Assay [2] addresses human MGAT2 (Homo sapiens (Human), UniProt Q3SYC2). The assay is described as follows: Measurement of human MGAT2 inhibitory activity. The class given is biochemical. The note with it: concentration exhibiting 50% enzyme inhibition. As for the experimental part:
Solutions of the compounds of the present invention in DMSO were each aliquoted into 0.2·μL portions in a 384-well polystyrene microplate produced by Corning Incorporated, and 5 μL of an enzyme solution prepared with an assay buffer (100 mmol/L phosphate buffer (pH 7.4) containing 2 mmol/L DTT) and 5 μL of a substrate solution (100 mmol/L phosphate buffer (pH 7.4), 30 μmol/L 2-Oleoylglycerol, 10 μmol/L Oleoyl-CoA) were added thereto, and the resultant was stirred and centrifuged, and incubated in a moist chamber at room temperature for 1 hour. After enzymatic reaction, 50 μL of a quenching solution (containing 0.2 μmol/L Diolein-d5, 0.4% formic acid, and 50% isopropanol) containing Internal Standard (IS) was added to terminate the reaction, and the resultant was sealed in a plate produced by Shimadzu GLC Ltd., and then stirred and centrifuged, and measurement was performed by using an electrospray ionization method with a RapidFire360 and Agilent 6550 Q-TOF mass spectrometer. Diolein as a reaction product (P) of 2-Oleoylglycerol as the substrate and an ammonium adduct ion of the IS were detected, and the peak intensity ratio, P/IS, was calculated from the peak heights to evaluate the inhibitory activity. Inhibitory activities with/without addition of enzyme were defined as Control (+)/Control (−), respectively, and the respective % inhibitions were defined as 0% inhibition and 100% inhibition. The inhibitory activity was calculated from the formula below with TIBCO Spotfire (produced by TIBCO Software Inc.) with the peak intensity ratio, P/IS, at the time of addition of the compound of the present invention being as Sample: […]

Where [3] appears, read: 1st week of administration, semaglutide study.
Setting [4] is: 2nd week of administration, semaglutide study.
Setting [5] is: 3rd week of administration, semaglutide study.
Where [6] appears, read: 4th week of administration, semaglutide study.
Where [7] appears, read: 5th week of administration, semaglutide study.

Chain of human MGAT2 (Q3SYC2 whole entry): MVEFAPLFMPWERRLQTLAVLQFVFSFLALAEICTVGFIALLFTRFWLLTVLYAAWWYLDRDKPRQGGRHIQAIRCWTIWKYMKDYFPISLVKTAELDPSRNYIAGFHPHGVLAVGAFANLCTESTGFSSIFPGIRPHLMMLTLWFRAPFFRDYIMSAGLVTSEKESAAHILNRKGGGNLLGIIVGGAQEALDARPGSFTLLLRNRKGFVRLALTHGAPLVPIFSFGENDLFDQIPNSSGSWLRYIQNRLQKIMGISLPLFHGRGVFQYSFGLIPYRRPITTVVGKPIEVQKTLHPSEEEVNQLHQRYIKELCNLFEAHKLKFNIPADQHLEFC

As a reminder, the IC50 is the point on the concentration scale where inhibition reaches its midpoint. In the case of `CS(=O)(=O)CC(=O)Nc1c2c(nn1CCCOC(F)(F)F)C[C@@]1(CCOc3cc(OCC(F)(F)F)ccc31)NC2=O` [II-121], the “Rate of decrease in food consumption relative to control group” value in assay [1] (1st week of administration, liraglutide study) was found to be 18.9%; in assay [1] (setting [3]), 15.7%; in assay [1] (2nd week of administration, liraglutide study), 12.7%; in assay [1] (setting [4]) it was 10.5%; in assay [1] (3rd week of administration, liraglutide study), 9.9%; in assay [1] (setting [5]) it was 7.3%. For the same compound, the “Rate of decrease in food consumption relative to control group” value in assay [1] (4th week of administration, liraglutide study) is given as 8.5%; in assay [1] (setting [6]), 3.9%; in assay [1] (5th week of administration, liraglutide study) it was 7.5%; in assay [1] (setting [7]), 1.6%. Moreover, the “Rate of decrease in body weight relative to control group” value is given as 10.0% in assay [1] (liraglutide study (FIG. 1)) and 5.5% in assay [1] (semaglutide study (FIG. 2)). In addition, the IC50 in assay [2] turned out to be 2.91 nM.

As to semaglutide [reference compound], the “Rate of decrease in food consumption relative to control group” value in assay [1] (setting [3]) was found to be 8.5%; in assay [1] (setting [4]) it was 33.1%; in assay [1] (setting [5]) it was 18.2%; in assay [1] (setting [6]), 10.9%; in assay [1] (setting [7]), 6.0%. In assay [1] (semaglutide study (FIG. 2)), the “Rate of decrease in body weight relative to control group” value is reported as 18.0%.
